Activity calls are given as the source filed them. No cut-off for these calls is given here.
What was measured:
[1] = Tmax in ICR mouse at 10 mg/kg, po measured by LC-MS/MS analysis; format: ADME, organism-based; conditions: in vivo
[2] = Cmax in ICR mouse at 10 mg/kg, po measured by LC-MS/MS analysis; format: ADME, organism-based; set-up: dose 10 mg/kg, route po; conditions: in vivo
[3] = AUC(0 to t) in ICR mouse at 10 mg/kg, po measured by LC-MS/MS analysis; format: ADME, organism-based; set-up: dose 10 mg/kg, route po; conditions: in vivo
[4] = Half-life in beagle dog at 1 mg/kg, iv measured by LC-MS/MS analysis; format: ADME, organism-based, Canis lupus familiaris; conditions: in vivo
[5] = Clearance in beagle dog at 1 mg/kg, iv measured by LC-MS/MS analysis; format: ADME, organism-based, Canis lupus familiaris; conditions: in vivo
[6] = Half-life in beagle dog at 5 mg/kg, po measured by LC-MS/MS analysis; format: ADME, organism-based, Canis lupus familiaris; conditions: in vivo
[7] = Tmax in beagle dog at 5 mg/kg, po measured by LC-MS/MS analysis; format: ADME, organism-based, Canis lupus familiaris; conditions: in vivo
[8] = Cmax in beagle dog at 5 mg/kg, po measured by LC-MS/MS analysis; format: ADME, organism-based, Canis lupus familiaris; set-up: dose 5 mg/kg, route po; conditions: in vivo
[9] = Oral bioavailability in beagle dog at 5 mg/kg measured by LC-MS/MS analysis; format: ADME, organism-based, Canis lupus familiaris; conditions: in vivo
[10] = Metabolic stability in mouse liver microsomes assessed as intrinsic clearance at 2 uM preincubated for 10 mins in the presence of NADPH followed by compound addition and measured per mg protein after 60 mins by LC-MS/MS analysis; format: ADME, Microsome; conditions: read-out: CLH
[11] = Metabolic stability in human liver microsomes assessed as parent compound remaining at 2 uM preincubated for 10 mins followed by compound addition and measured after 60 mins by LC-MS/MS analysis; format: ADME, Microsome; conditions: read-out: Stability
[12] = Metabolic stability in human liver microsomes assessed as intrinsic clearance at 2 uM preincubated for 10 mins in the presence of NADPH followed by compound addition and measured per mg protein after 60 mins by LC-MS/MS analysis; format: ADME, Microsome; conditions: read-out: CLH
[13] = Stability in mouse plasma assessed as parent compound remaining measured after 45 mins by LC-MS/MS analysis; format: ADME, cell-free; conditions: read-out: Stability
[14] = Stability in mouse plasma assessed as parent compound remaining measured after 60 mins by LC-MS/MS analysis; format: ADME, cell-free; conditions: read-out: Stability
[15] = Stability in human plasma assessed as parent compound remaining measured immediately by LC-MS/MS analysis; format: ADME, cell-free; conditions: read-out: Stability
[16] = Stability in human plasma assessed as parent compound remaining measured after 30 mins by LC-MS/MS analysis; format: ADME, cell-free; conditions: read-out: Stability
[17] = Stability in human plasma assessed as parent compound remaining measured after 60 mins by LC-MS/MS analysis; format: ADME, cell-free; conditions: read-out: Stability
[18] = target: Voltage-gated inwardly rectifying potassium channel KCNH2 (Homo sapiens, UniProt Q12809); assay: Inhibition of hERG in HEK293 cells by whole-cell manual patch clamp technique; format: toxicity, cell-based
CWR22R [19] = assay: Antiproliferative activity against enzalutamide-resistant human 22Rv1 cells assessed as reduction in cell viability incubated for 6 days by CCK-8 assay; format: functional, cell-based; conditions: 22Rv1, 144 h
VCaP [20] = assay: Antiproliferative activity against AR-dependent human VCaP cells assessed as reduction in cell viability at 3 to 10 uM incubated for 6 days by CCK-8 assay; format: functional, cell-based; conditions: dose 3-10 µM, time 6.0 day
DU-145 = assay: Antiproliferative activity against AR-independent human DU-145 cells assessed as reduction in cell viability at 10 uM incubated for 6 days by CCK-8 assay; format: functional, cell-based; conditions: time 6.0 day
LNCaP [21] = assay: Inhibition of colony formation in human LNCaP cells incubated for 2 weeks by crystal violet staining based analysis; format: functional, cell-based; conditions: dose 1-10 µM
CWR22R [22] = assay: Inhibition of colony formation in human 22Rv1 cells incubated for 2 weeks by crystal violet staining based analysis; format: functional, cell-based; conditions: dose 1-10 µM
LNCaP [23] = assay: Downregulation of TMPRSS2 protein level in human LNCaP cells incubated for 48 hrs by Western blot analysis; format: functional, cell-based; conditions: dose 1-10 µM
LNCaP [24] = assay: Downregulation of FKBP51 protein level in human LNCaP cells incubated for 48 hrs by Western blot analysis; format: functional, cell-based; conditions: dose 1-10 µM
LNCaP [25] = assay: Downregulation of PSA protein level in human LNCaP cells incubated for 48 hrs by Western blot analysis; format: functional, cell-based; conditions: dose 1-10 µM
VCaP [26] = assay: Downregulation of TMPRSS2 protein level in human VCaP cells incubated for 48 hrs by Western blot analysis; format: functional, cell-based; conditions: dose 1-10 µM
VCaP [27] = assay: Downregulation of FKBP51 protein level in human VCaP cells incubated for 48 hrs by Western blot analysis; format: functional, cell-based; conditions: dose 1-10 µM
VCaP [28] = assay: Downregulation of PSA protein level in human VCaP cells incubated for 48 hrs by Western blot analysis; format: functional, cell-based; conditions: dose 1-10 µM
[29] = Downregulation of PSA protein level in human VCaP cells at 10 uM incubated for 48 hrs by Western blot analysis relative to control; format: functional
LNCaP [30] = assay: Induction of apoptosis in human LNCaP cells assessed as PARP-1 cleavage at 5 to 10 uM incubated for 48 hrs by Western blot analysis; format: functional, cell-based; conditions: dose 5-10 µM
LNCaP [31] = assay: Induction of apoptosis in human LNCaP cells assessed as caspase-3 cleavage at 5 to 10 uM incubated for 48 hrs by Western blot analysis; format: functional, cell-based; conditions: dose 5-10 µM
VCaP [32] = assay: Induction of apoptosis in human VCaP cells assessed as PARP-1 cleavage at 5 to 10 uM incubated for 48 hrs by Western blot analysis; format: functional, cell-based; conditions: dose 5-10 µM
[33] = Toxicity in NOD SCID mouse xenografted with human LNCaP cells assessed as body weight loss at 20 to 60 mg/kg, po administered daily for 4 weeks; format: organism-based; conditions: in vivo, 672 h, dose 20-60 mg/kg
[34] = Toxicity in ICR mouse assessed as body weight loss at 20 to 60 mg/kg, po administered daily for 14 days; format: organism-based; conditions: in vivo, 336 h, dose 20-60 mg/kg, time 14 day
[35] = Toxicity in ICR mouse assessed as liver damage at 20 to 60 mg/kg, po administered daily for 14 days; format: organism-based; conditions: in vivo, 336 h, dose 20-60 mg/kg, time 14 day
[36] = Toxicity in ICR mouse assessed as spleen damage at 20 to 60 mg/kg, po administered daily for 14 days; format: organism-based; conditions: in vivo, 336 h, dose 20-60 mg/kg, time 14 day

Sequence of Voltage-gated inwardly rectifying potassium channel KCNH2 (Q12809 whole entry): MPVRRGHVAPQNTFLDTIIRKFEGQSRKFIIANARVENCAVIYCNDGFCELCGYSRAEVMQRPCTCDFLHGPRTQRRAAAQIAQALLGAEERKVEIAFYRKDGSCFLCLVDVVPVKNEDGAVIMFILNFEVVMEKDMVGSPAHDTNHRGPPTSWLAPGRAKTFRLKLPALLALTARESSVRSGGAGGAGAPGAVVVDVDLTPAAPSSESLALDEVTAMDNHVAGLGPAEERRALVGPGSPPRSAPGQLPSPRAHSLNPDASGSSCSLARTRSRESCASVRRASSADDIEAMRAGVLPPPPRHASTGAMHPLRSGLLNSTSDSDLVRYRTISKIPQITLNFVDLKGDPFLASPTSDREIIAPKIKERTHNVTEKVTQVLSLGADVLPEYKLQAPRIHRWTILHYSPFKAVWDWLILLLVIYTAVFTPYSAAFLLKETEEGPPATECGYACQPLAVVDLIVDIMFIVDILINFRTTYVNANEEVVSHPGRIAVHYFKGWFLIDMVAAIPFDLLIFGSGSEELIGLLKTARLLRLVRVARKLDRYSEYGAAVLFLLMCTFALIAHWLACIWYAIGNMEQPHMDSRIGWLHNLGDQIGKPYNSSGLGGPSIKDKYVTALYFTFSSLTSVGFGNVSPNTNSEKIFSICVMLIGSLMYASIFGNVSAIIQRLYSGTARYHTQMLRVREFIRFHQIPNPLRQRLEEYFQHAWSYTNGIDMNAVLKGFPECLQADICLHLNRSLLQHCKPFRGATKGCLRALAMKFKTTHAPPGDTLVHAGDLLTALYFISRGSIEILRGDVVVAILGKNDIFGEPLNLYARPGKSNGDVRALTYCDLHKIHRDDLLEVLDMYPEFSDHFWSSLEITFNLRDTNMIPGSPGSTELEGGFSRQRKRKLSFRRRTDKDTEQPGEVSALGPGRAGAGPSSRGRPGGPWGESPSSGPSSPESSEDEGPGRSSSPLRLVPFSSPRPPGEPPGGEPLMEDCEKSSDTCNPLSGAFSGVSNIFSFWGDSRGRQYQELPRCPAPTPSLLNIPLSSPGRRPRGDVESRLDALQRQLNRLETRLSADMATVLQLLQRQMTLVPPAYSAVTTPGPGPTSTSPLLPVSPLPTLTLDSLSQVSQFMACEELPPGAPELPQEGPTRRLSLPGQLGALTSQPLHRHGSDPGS

Tmax [1]: 4.7 h
Cmax [2]: 376 ng/mL
AUC(0-t) [3]: 5950 ng·h/mL
half-life [4]: 9.9 h
clearance [5]: 15.5 mL/min/kg
half-life [6]: 31.2 h
Tmax [7]: 2.8 h
Cmax [8]: 97.3 ng/mL
F [9]: 69.3%
microsomal CLint at 2 µM [10]: 7.4 µL/min/mg
remaining at 1 h, 2 µM [11]: 94%
microsomal CLint at 2 µM [12]: 7.4 µL/min/mg
remaining at 0.75 h [13]: 102%
remaining at 1 h [14]: 90.8%
remaining at 0 min [15]: 100%
remaining at 0.5 h [16]: 92.1%
remaining at 1 h [17]: 91.9%
SMILES: CC(C)(c1ccc(OCC2CCN(CC3CCN(c4ccc5c(c4)C(=O)N(C4CCC(=O)NC4=O)C5=O)CC3)CC2)cc1)c1ccc(OC[C@H](O)CCl)cc1 (some centres not stated)
IC50 [18]: > 10 µM
IC50 (CWR22R [19]): 4.08 µM
Activity (VCaP [20]): Active
Activity (DU-145): inactive
inhibition (LNCaP [21]): Dose-Dependent Effect
inhibition (CWR22R [22]): Dose-Dependent Effect
Activity (LNCaP [23]): Dose-Dependent Effect
Activity (LNCaP [24]): Dose-Dependent Effect
Activity (LNCaP [25]): Dose-Dependent Effect
Activity (VCaP [26]): Dose-Dependent Effect
Activity (VCaP [27]): Dose-Dependent Effect
Activity (VCaP [28]): Dose-Dependent Effect
Activity [29]: >80%
Activity (LNCaP [30]): Active
Activity (LNCaP [31]): Active
Activity (VCaP [32]): Active
Activity [33]: Non-Toxic
Activity [34]: Non-Toxic
Activity [35]: Non-Toxic
Activity [36]: Non-Toxic

Source: ChEMBL document CHEMBL5325501, “Discovery of BWA-522, a First-in-Class and Orally Bioavailable PROTAC Degrader of the Androgen Receptor Targeting N-Terminal Domain for the Treatment of Prostate Cancer” (J Med Chem, 2023)
